Data: US20120034164A1, “TRUNCATED CAR PEPTIDES AND METHODS AND COMPOSITIONS USING TRUNCATED CAR PEPTIDES” (Sanford-Burnham Medical Research Institute California, priority 2010, published 2012)
Where a SMILES comes first, the peptide text is derived from it. Bridges are numbered along the chain shown (N, C = ends). Roman numbers before positions name the chains, in order. Primed or numbered codes have the meaning given here. Where no end group is shown, it is not given here. The star is where a group is joined. 5FAM = O=C1OC2(c3ccc(O)cc3Oc3cc(O)ccc32)c2ccc(C(=O)*)cc21; 5FAM″ = 5-carboxyfluorescein label

Columns and labels:
[1] = tested on: monocrotaline-induced PAH lesions; assay: Peptide homing to lungs in monocrotaline-induced PAH rats (anti-FITC immunohistochemistry); type: in vivo, rat; settings: for accumulation of peptide in the PAH lungs: 2 hours after injection; for accumulation in the kidney: MCT-treated PAH rats and untreated healthy animals
Description: Monocrotaline (Sigma-Aldrich, St. Louis, Mo.) was dissolved in 0.3 M hydrochloride solution and neutralized with 0.3 M sodium hydroxide solution, and adjusted pH around 7.0. Adult male Sprague-Dawley rats (150-200 g, Harlan Laboratories, Indianapolis, Ind.) were administered with a single subcutaneous injection of monocrotaline solution at a dose of 60 mg/kg body weight, while control rats were administered with 0.9% saline (Bader, M. Rat models of cardiovascular diseases. Methods Mol Biol 597, 403-14 (2010)). Rats were randomly selected and studied for peptide targeting studies on 1, 3, 7, 14 or 21 days after the treatment of monocrotaline.
(§1) The following peptides were labeled with 5-carboxyfluorescein (FAM) and used for the lung targeting studies: CAR, CARSKNKDC (SEQ ID NO:147); VCAM1, CVHSPNKKCGGSK (SEQ ID NO:13); CG7C control CGGGGGGGC (SEQ ID NO:14); CAR mutant (CAR-M), CAQSNNKDC (SEQ ID NO:15). Peptides were dissolved in PBS at the concentrations of 0.5 mg/mL. Hypertensive rats were injected with peptide solution through tail vein (3.3 mg/kg). At 2 hours after the injection, rats were perfused with PBS containing 1% bovine serum albumin under the deep anesthesia and tissues were fixed by systemic perfusion with 10% buffered formalin. The organs were excised and fixed for additional 24 hours and processed for anti-fluorescein immunohistochemistry.
To determine the localization of the peptides, paraffin-embedded tissue sections were immunostained with rabbit anti-fluoroscein isothiocyanate (FITC) antibody (Invitrogen, Carlsbad, Calif.) followed by horseradish peroxidase-labeled anti-rabbit IgG secondary antibody. The peptide localization was then visualized by DAB. Sections were counter stained with hematoxylin to visualize the region of cells. An automated staining system, Discovery XT (Ventana, Tucson, Ariz.) was used for the staining. To examine the co-localization of the peptides with macrophages or alveolar type II cells, tissue sections were doubly stained with rabbit anti-FITC antibody and mouse anti-rat-CD68 antibody; EDI (Serotec, Raleigh, N.C.) or rabbit anti-Prosurfactant Protein C (proSP-C, Millipore, Temecula, Calif.), respectively. For FITC/proSP-C double staining, FITC staining was completed first. The tissues sections were then treated withcitrate buffer (pH 6.0) at 98° C. for 10 min before proceeding to proSP-C staining. Biotinylated species-specific secondary antibodies and alkaline phosphatase-labeled streptavidin (Vector Laboratories, Burlingame, Calif.) were used to visualize macrophages and alveolar type II cells with Permanent Red (Dako, Carpinteria, Calif.).
Images of stained slides were observed and captured with ECLIPSE 90i or 80i microscope with CCD camera DS-5M (Nikon Instruments, Melville, N.Y.). To quantify the targeting efficiency of the peptides to the lung, the immunostained sections were scanned by Aperio Scanscope XT and analyzed using ImageScope software (Aperio Technologies, Vista, Calif.). For the quantification of area and density of peptide staining, the Aperio Color Deconvolution tool was used to compare total peptide positive area and intensity of peptide staining in each animal. The thresholds were set empirically for strong, medium, and weak staining. The area of each level of staining was presented as percent of such area in the total cell area. The total stained area was normalized by hematoxylin stained area of same regions.
A rat model of monocrotaline (MCT)-induced pulmonary arterial hypertension was used for this study. Briefly, male Sprague-Dawley rats (150-200 g, Harlan Laboratories, IN) were administered with a single subcutaneous injection of monocrotaline at 60 mg/kg (Sigma-Aldrich, MO), while control rats administered 0.9% saline. Rats were randomly selected and studied for peptide distribution studies on 1, 3, 7, 14 or 21 days after the treatment of monocrotaline. […]

[2] = tested on: 4T1 tumors; assay: In vivo tumor homing of FAM-labeled peptides (confocal imaging); settings: 200 μL of 1 mM FAM-peptide i.v.
Description: Mice bearing orthotopic tumors generated with 4T1 mouse breast cells were intravenously injected with the 200 μL of 1 mM fluorescamine (FAM)-conjugated CAR peptide. The circulation time was 1 hour.
Confocal images of sections of the tumor and normal organs from mice injected with the 200 μL of 1 mM FAM-tCAR peptide. The circulation time was 2 hours.
Confocal images of sections of the tumor and normal organs from mice injected with the 200 μL of 1 mM FAM-ARSKNK peptide. The circulation time was 1 hour.
Confocal images of sections of the tumor and normal organs from mice injected with the 200 μL of 1 mM FAM-KNKSRAC-CARSKNK peptide (SEQ ID NO:4). The circulation time was 1 hour.

[3] = tested on: mitochondrial membranes; settings: at a concentration of 10 μM; cited from earlier work
[4] = tested on: SU5416/hypoxia-induced PAH lesions; type: in vivo, rat
Description: Adult male Sprague-Dawley rats (approx. 200 g) were injected subcutaneously with SU5416 (20 mg/kg body weight; SUGEN Inc, South San Francisco, Calif.), which was suspended in carboxymethylcellulose (0.5% carboxymethylcellulose sodium, 0.9% sodium chloride, 0.4% polysorbate, 0.9% benzyl alcohol in deionized water). The rats were then exposed to chronic hypoxia in a hypobaric chamber (barometric pressure, 410 mm Hg: inspired O2 tension, 76 mm Hg) for 3 weeks followed by an additional 6 weeks of reexposure to normoxia. Rats were examined at 9 weeks after the injection of SU5416 when they develop severe occlusive pulmonary arterial lesions (Abe, K. et al. Formation of plexiform lesions in experimental severe pulmonary arterial hypertension. Circulation 121, 2747-54 (2010)).
as §1, with “CVHSPNKKCGGSK” left out, “The organs were excised and fixed for additional 24 hours and processed for anti-fluorescein immunohistochemistry.” left out

[5] = MCT-treated rats, FAM-peptide 3.3 mg/kg i.v.

## CVHSPNKKCGGSK (CVHSPNKKCGGSK-{5FAM″}; cysteine pairing not given here) [VCAM-1 binding peptide]
[1]; [5]
  accumulation of peptide in the PAH lungs: accumulated in the PAH lungs to a similar extent to CAR
[1]; non-MCT-treated rats, FAM-peptide 3.3 mg/kg i.v., 2 hours
  accumulation of peptide in healthy normal lung: a fair amount

## CARSKNK (also: FAM label, position not given here) [tCAR]
[2]; circulation time 2 hours
  accumulation in normal tissues: not detectable accumulation
  spreading within tumor tissue: wider spreading within tumor tissue than CAR

## CGGGGGGGC (5FAM-CGGGGGGGC; cysteine pairing not given here) [CG7C]
[1]
  accumulation in the kidney: also accumulated in the kidney
[1]; [5]
  accumulation of peptide in the PAH lungs: only very weak staining

## D(KLAKLAK)2 (KLAKLAKKLAKLAK; D-amino acids; membrane perturbing molecule)
[3]
  mitochondrial swelling: marked mitochondrial swelling

## KNKSRAC-CARSKNK (disulfide I:7-II:1 (inferred); not fully specified (N-terminus); also: FAM label, position not given here) [dimeric tCAR]
[2]; circulation time 1 hour
  accumulation in tumor tissue: less tumor accumulation than the monomeric tCAR peptide

## C[C@@H]1NC(=O)[C@@H](NC(=O)c2ccc3c(c2)C(=O)OC32c3ccc(O)cc3Oc3cc(O)ccc32)CSSC[C@@H](C(=O)O)NC(=O)[C@H](CC(=O)O)NC(=O)[C@H](CCCCN)NC(=O)[C@H](CC(N)=O)NC(=O)[C@H](CCCCN)NC(=O)[C@H](CO)NC(=O)[C@H](CCCNC(=N)N)NC1=O [CAR, CARSKNKDC] (5FAM-CARSKNKDC-OH; disulfide 1-9)
[1]
  accumulation in the kidney: accumulation in the kidney was observed
[1]; MCT-treated rats, organs other than lung, except kidney
  accumulation in other organs: absent or very weak

## ARSKNK (5FAM-ARSKNK)
[2]; circulation time 1 hour
  accumulation in tumor tissue: Little ARSKNK peptide accumulated in the tumor tissue
  fluorescence in the heart: some fluorescence was detected in the heart

## CAQSNNKDC (cysteine pairing not given here; also: labelled with FAM, site not given here) [CAR-M]
[4]; 9 weeks after SU5416, FAM-peptide 3.3 mg/kg i.v., 2 hours
  accumulation of peptide in PAH lungs / PAH lesion: only negligible signal
[4]; peptide 1 mg/300 g rat i.v. in hemodynamic study, anti-fluorescein staining
  detection in remodeled arteries from lung tissue: not
